Laboratory results from US9981945B2, “Pyrimidine derivatives as CFTR modulators” (NuBridge BioSciences, priority 2015, dated 2018).

Target: T1, ΔF508 mutant CFTR (Homo sapiens, UniProt P13569, DEL508-508)
T1 construct: expressed in transfected cells; host or cells: Fischer rat thyroid (FRT) cells
Test: Fluorescence (YFP halide quenching) assay of ΔF508 mutant CFTR activity in FRT cells
Format: cell-based
Design: key: fold of mean activity with forskolin alone (I− quenching rate)
Details: FRT cells expressing ΔF508-CFTR and YFP-H148Q/I152L, rescued at 27° C. 20-24 h; forskolin 20 μM + test compound 20 μM for 20 min; I− influx rate normalized to forskolin alone
Excerpt: The ΔF508 mutant CFTR activities of the CFTR modulators are detected using the Fluorescence Assay developed by Pedemonte (Pedemonte N., et al., Antihypertensive 1,4-dihydropyridines as correctors of the cystic fibrosis transmembrane conductance regulator channel gating defect caused by cystic fibrosis mutations, Mol. Pharmacol., 2005, 68, 1736-1746).
Fischer rat thyroid (FRT) cells, stably transfected with ΔF508 were retransfected with the YFP-H148Q/I152L fluorescent protein. The cells were plated (100,000 cells/well) on black 96-well microplates with clear plastic bottom (Corning Life Sciences, Acton, Mass.).
The 96-well microplates containing FRT cells expressing F508-CFTR and the halide-sensitive YFP were incubated at 27° C. for 20 to 24 h to allow rescue of the mutant protein to the plasma membrane. After incubation, cells were washed with PBS (containing 137 mM NaCl, 2.7 mM KCl, 8.1 mM Na2HPO4, 1.5 mM KH2PO4, 1 mM CaCl2, and 0.5 mM MgCl2) and stimulated for 20 min with forskolin (20 μM) and test compounds (20 μM) in a final volume of 60 μl. Microplates were then transferred to a microplate reader for CFTR activity determination. Each assay consisted of a continuous 14-s fluorescence reading (5 points per second) with 2 s before and 12 s after injection of 165 μl of an iodide-containing solution (PBS with Cl^− replaced by I^−). Final iodide concentration in the wells was 100 mM. […] To determine I^− influx rate, the final 11 s of the data for each well were fitted with an exponential function to extrapolate initial slope. CFTR activity was determined by measuring the rate of fluorescence quenching induced by extracellular addition of I^−. Data are normalized to the mean activity measured in the presence of forskolin alone.

T1 sequence (P13569 with tags, fused parts or gaps DEL508-508): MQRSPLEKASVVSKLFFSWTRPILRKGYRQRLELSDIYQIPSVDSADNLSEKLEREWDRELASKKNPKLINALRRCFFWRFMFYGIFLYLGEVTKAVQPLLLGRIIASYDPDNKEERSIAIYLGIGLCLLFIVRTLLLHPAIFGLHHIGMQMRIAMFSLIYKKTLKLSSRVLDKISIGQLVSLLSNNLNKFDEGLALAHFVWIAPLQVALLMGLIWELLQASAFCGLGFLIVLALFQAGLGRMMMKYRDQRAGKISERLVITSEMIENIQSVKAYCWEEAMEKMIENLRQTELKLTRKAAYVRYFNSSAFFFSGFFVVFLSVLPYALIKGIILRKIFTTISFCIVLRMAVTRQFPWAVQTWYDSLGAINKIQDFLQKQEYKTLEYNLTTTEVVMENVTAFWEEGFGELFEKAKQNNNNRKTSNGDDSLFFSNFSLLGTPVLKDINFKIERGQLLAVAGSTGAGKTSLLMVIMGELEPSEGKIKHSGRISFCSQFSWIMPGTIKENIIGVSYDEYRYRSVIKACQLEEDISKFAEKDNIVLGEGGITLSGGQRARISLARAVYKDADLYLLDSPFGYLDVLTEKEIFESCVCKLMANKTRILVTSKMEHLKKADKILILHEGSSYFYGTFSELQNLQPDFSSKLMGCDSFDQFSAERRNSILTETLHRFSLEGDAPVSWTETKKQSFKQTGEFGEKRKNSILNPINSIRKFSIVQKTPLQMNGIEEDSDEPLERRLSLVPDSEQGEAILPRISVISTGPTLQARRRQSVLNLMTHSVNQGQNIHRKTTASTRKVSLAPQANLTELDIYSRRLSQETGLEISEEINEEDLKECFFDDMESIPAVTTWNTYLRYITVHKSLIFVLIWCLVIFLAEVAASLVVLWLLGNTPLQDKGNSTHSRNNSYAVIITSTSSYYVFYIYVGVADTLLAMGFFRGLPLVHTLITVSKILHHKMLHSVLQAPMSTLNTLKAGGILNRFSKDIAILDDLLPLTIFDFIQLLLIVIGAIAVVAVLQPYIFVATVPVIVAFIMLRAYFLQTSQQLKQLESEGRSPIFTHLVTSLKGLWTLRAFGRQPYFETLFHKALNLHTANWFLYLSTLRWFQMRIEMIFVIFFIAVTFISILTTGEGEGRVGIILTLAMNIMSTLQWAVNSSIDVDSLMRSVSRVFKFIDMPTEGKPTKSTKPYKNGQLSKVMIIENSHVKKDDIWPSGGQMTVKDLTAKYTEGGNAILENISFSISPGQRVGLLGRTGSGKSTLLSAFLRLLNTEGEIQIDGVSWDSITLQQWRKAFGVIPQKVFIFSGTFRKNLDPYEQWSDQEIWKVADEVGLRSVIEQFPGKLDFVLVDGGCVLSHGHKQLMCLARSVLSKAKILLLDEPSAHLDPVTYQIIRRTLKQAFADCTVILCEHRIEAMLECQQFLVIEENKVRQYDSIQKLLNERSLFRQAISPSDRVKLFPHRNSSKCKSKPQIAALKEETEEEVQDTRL

CFTR Activity: 4.2
Compound: Cl.Nc1cc(C(F)(F)F)c(-c2c(F)cccc2F)nc1C(=O)Nc1cncnc1OC1CCCC(N)C1 (stereo not shown) [Example 61, 3-amino-N-(4-((3-aminocyclohexyl)oxy)pyrimidin-5-yl)-6-(2,6-difluorophenyl)-5-(trifluoromethyl)picolinamide hydrochloride]
